Assays:
[1] = biological target: T1, ATP-dependent translocase ABCB1 (Homo sapiens, UniProt P08183); assay: Reversal of human MDR1-mediated multidrug resistance in mouse L5178Y cells expressing MDR1 assessed as mean fluorescence intensity of rhodamine-123 uptake at 20 uM after 10 mins by flow cytometry; type: cell-based
[2] = biological target: T1, ATP-dependent translocase ABCB1; assay: Reversal of human MDR1-mediated multidrug resistance in mouse L5178Y cells expressing MDR1 assessed as fluorescence activity ratio at 20 uM after 10 mins by rhodamine-123 exclusion test; type: cell-based
[3] = biological target: T1, ATP-dependent translocase ABCB1; assay: Reversal of human MDR1-mediated multidrug resistance in mouse L5178Y cells expressing MDR1 assessed as mean fluorescence intensity of rhodamine-123 uptake at 2 uM after 10 mins by flow cytometry; type: cell-based
[4] = biological target: T1, ATP-dependent translocase ABCB1; assay: Reversal of human MDR1-mediated multidrug resistance in mouse L5178Y cells expressing MDR1 assessed as fluorescence activity ratio at 2 uM after 10 mins by rhodamine-123 exclusion test; type: cell-based
[5] = tested on: L5178Y; assay: Antiproliferative activity against mouse L5178Y cells after 72 hrs by MTT assay; type: functional; details: read-out: ID50 (the source's name)
[6] = tested on: L5178Y; assay: Antiproliferative activity against multidrug resistant mouse L5178Y cells expressing human MDR1 after 72 hrs by MTT assay; type: functional; details: read-out: ID50 (the source's name)
[7] = biological target: T1, ATP-dependent translocase ABCB1; details: l5178y, 10 min, 22.2 µM
Description: Reversal of human MDR1-mediated multidrug resistance in mouse L5178Y cells expressing MDR1 assessed as mean fluorescence intensity of rhodamine-123 uptake at 22.2 uM after 10 mins by flow cytometry

T1 sequence (P08183 whole entry): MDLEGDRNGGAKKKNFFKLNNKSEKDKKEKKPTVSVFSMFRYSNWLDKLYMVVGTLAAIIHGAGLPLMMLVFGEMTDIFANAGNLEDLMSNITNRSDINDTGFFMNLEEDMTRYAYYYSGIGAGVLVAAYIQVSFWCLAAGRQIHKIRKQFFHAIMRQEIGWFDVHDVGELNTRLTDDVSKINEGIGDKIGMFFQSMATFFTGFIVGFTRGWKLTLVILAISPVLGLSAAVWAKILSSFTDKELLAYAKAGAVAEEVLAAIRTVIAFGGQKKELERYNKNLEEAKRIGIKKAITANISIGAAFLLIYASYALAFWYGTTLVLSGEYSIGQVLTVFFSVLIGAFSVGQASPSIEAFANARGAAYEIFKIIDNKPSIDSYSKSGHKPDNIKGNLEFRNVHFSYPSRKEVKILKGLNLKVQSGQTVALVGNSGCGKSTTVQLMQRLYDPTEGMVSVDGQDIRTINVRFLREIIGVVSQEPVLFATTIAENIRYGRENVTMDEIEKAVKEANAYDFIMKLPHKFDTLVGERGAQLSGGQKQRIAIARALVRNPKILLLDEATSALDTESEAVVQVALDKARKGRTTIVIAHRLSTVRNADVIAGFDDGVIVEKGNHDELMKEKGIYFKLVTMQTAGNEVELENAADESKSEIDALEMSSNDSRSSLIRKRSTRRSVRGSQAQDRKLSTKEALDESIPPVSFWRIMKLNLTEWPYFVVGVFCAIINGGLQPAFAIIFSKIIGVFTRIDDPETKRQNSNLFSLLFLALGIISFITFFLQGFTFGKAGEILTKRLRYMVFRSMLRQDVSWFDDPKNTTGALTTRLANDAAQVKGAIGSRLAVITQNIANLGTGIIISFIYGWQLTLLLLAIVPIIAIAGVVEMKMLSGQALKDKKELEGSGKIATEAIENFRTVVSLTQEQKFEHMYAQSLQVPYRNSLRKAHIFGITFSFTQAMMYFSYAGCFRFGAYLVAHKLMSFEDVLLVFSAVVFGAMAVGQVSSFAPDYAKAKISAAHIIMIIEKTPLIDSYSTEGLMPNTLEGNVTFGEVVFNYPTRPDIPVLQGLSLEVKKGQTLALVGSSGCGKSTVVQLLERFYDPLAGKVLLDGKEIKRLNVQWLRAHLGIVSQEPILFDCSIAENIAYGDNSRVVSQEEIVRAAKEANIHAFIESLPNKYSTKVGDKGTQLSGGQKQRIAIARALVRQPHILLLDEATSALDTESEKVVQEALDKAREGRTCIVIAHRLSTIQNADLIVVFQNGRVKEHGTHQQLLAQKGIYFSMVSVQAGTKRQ

| SMILES | Flu intensity [1] | Ratio [2] | Flu intensity [3] | Ratio [4] | IC50 [5] | IC50 [6] | Activity [1] | Activity [3] | Flu intensity [7] |
| --- | --- | --- | --- | --- | --- | --- | --- | --- | --- |
| Cc1cc2c([n-]c3ccccc32)c2[n+]1C(C)NCC2 (centres undefined) [TABERNINE A] | 18.5 | 1.73 | 7.7 | 0.72 | 45.9 µM | 37.5 µM |  |  |  |
| Cc1cc2c3ccccc3n3c2c(n1)CCNC3C (centres undefined) [TEBERNINE B] |  | 0.99 |  | 0.78 | 46.6 µM | 39.7 µM | 10.7 | 8.9 |  |
| Cc1cc2c([nH]c3ccccc32)c(CCN)n1 [TEBERNINE C] |  | 1.43 |  | 0.79 | 70.6 µM | 51.5 µM | 15.3 | 8.4 |  |
| COc1ccc(CCN(C)CCCC(C#N)(c2ccc(OC)c(OC)c2)C(C)C)cc1OC (centres undefined) [VERAPAMIL] |  |  |  |  |  |  |  |  | 98.9 |

From ChEMBL document CHEMBL1152951, “Tabernines A-C, beta-carbolines from the leaves of Tabernaemontana elegans” (J Nat Prod, 2009)
